Molecules are shown by their SMILES.

Take `N#Cc1cc(F)ccc1N=C=O`: the melting point lay in the range of 31 to 33 °C. The figure for `c1cc(-c2nnco2)ccn1` is 119 to 121 °C; for `CC(C)c1ncc(Cl)c(C(=O)O)n1` it is 129 to 131 °C; for `O=C(O)c1ccc(NS(=O)(=O)c2ccc(Cl)c(Cl)c2)cc1` it is 254 to 256 °C. Then `O=C1CNc2cccc(F)c2N1`, with 161 to 163 °C; and `NC(=O)COc1ccc(Cl)cc1S(=O)(=O)Cl`, with 143 to 145 °C.

`CC(C)(C)c1cc(=O)[nH]c(C(C)(C)C)n1` yielded a melting point of 163 to 165 °C. The figure for `Cc1nn(-c2ccc(F)cc2)c2ncc(C(=O)O)cc12` is 347 to 349 °C; for `O=C(O)c1cccc(-c2ncon2)c1` it is 175 to 177 °C. The figure for `CNCCOc1ccc(OCc2ccccc2)cc1` is 44 to 46 °C; for `O=C(O)c1ccn(-c2ccccc2F)n1` it is 122 to 124 °C; for `Nc1ccc(CN2CCOCC2)cn1` it is 119 to 121 °C. Then `CCCc1cc(=O)c2cc(Oc3ccccc3)ccc2[nH]1`, with 207 to 209 °C; and `Cc1c(Cl)cccc1N1C(=O)C=CC1=O`, with 68 to 70 °C; and `Nc1nc(-c2ccc3c(c2)CCO3)cs1`, with 173 to 175 °C. `CCC(NC(N)=O)C(=O)O` (stereo unspecified) had a melting point of 174 to 176 °C.

Turning to `Nc1ccc(Oc2cc(Cl)ccc2Cl)c(F)c1`, the melting point was 62 to 64 °C.

Take `CC(C)NC(=O)NC(C)C`: the melting point was 191 to 193 °C. Then `CC(C)(C(=O)O)c1cccc(Br)c1`, with 68 to 70 °C; and `CS(=O)(=O)Cc1ccc(Cl)cc1S(=O)(=O)Cl`, with 103 to 105 °C. Then `CCCCOc1ccc(-c2nnc(CCl)o2)cc1`, with 77 to 79 °C; and `O=c1[nH]c2ccccc2cc1CCl`, with 199 to 201 °C.

For `Nc1ccc(Oc2ccccc2)cc1C(=O)O`, the melting point is 138 to 140 °C. The figure for `NCc1cnn(-c2cccc(Cl)c2)c1` is 88 to 90 °C; for `Cc1ccccc1C1(C)NC(=O)NC1=O` (stereo unspecified) it is 169 to 171 °C. The figure for `O=C(O)c1c[nH]c2ccc(Br)cc12` is 238 to 240 °C; for `NC(=O)CSc1ccccc1N` it is 113 to 115 °C.

Compound `NS(=O)(=O)c1ccc(Sc2ccccc2C(=O)O)cc1` returned a melting point of 226 to 228 °C. Then `O=C1Nc2c(Br)cc(F)cc2C1=O`, with 215 to 217 °C; and `N#Cc1cccc(OCC(=O)O)c1`, with 123 to 125 °C; and `CN(C)c1c(F)cc(C(=N)N)cc1F`, with 95 to 97 °C. In the case of `O=C1CCCc2cc(C(=O)CCl)ccc2N1`, the melting point is 154 to 156 °C. Then `CCN(CC)S(=O)(=O)c1ccc(N)c(N)c1`, with 124 to 126 °C; and `COCc1ccccc1S(N)(=O)=O`, with 59 to 61 °C; and `COc1ccc(C)cc1NC(=O)C1CCCN1` (stereo unspecified), with 103 to 105 °C. Then `CCc1cc(O)ccc1Cl`, with 45 to 50 °C; and `Cc1ccc(NC(=O)CCl)cc1S(=O)(=O)N1CCCCCC1`, with 74 to 76 °C. The figure for `COc1ccc(C2CCCCC2=O)cc1F` (stereo unspecified) is 78 to 80 °C. `O=C(O)c1ccnc(Cl)c1[N+](=O)[O-]` yielded a melting point of 222 to 224 °C. The figure for `CCC(=O)c1ccc(C(=O)OC)cc1` is 82 to 84 °C; for `Cc1ccccc1-n1c(S)nnc1-c1cccnc1` it is 94 to 96 °C. The figure for `CN(C)S(=O)(=O)c1ccc(N)c(N)c1` is 193 to 195 °C; for `Cc1cc(-c2ncc[nH]2)c(=O)[nH]n1` it is 254 to 256 °C.

`Nc1ccc(Cl)cc1C(=O)Nc1ccc(Cl)cn1`: the melting point fell in the range of 177 to 179 °C. For the compound `CCC(=O)Nc1cccc(CN)c1`, the melting point is 56 to 58 °C. The figure for `O=C(O)CCc1nccs1` is 123 to 125 °C.

As to `Clc1ccnc2[nH]ccc12`, the melting point lay within 176 to 181 °C. In turn, `Cc1c(N)cccc1C(=O)Nc1ccccc1` had a melting point of 161 to 163 °C. The figure for `NC(=O)c1cc(C(=O)O)nn1-c1ccccc1` is 269 to 271 °C.

With `FC(F)(F)c1nc(Cl)c2cc(Br)ccc2n1`, the melting point was 101 to 103 °C. Then `Cc1cc(F)c2c(c1)C(=O)C(=O)N2`, with 225 to 227 °C; and `Cc1cc(C(C#N)c2ccc(Cl)cc2)c(Cl)cc1N` (stereo unspecified), with 147 to 153 °C; and `CC(=O)N(C)c1ccc(S(=O)(=O)Cl)cc1`, with 133 to 135 °C. The figure for `CC(=O)c1ccc2c3c(cccc13)CC2` is 58 to 60 °C. The figure for `O=C(O)c1ccc2c(c1)CCC2` is 173 to 175 °C.

In turn, `CS(=O)(=O)c1ccc2c(c1)CCCN2` registered a melting point of 112 to 114 °C. Then `Cn1ccnc1SCC(=O)Nc1ccccc1C(=O)O`, with 203 to 205 °C; and `CCc1nc(C(=O)O)nn1-c1c(Cl)cccc1Cl`, with 197 to 199 °C. The figure for `O=C(O)c1ccc(Cl)cc1I` is 157 to 159 °C. Consider `CCOc1ccc(Cl)cc1C(C)=O`, for which the melting point was 79 to 81 °C. The figure for `Cc1nccn1-c1cc(C(=O)O)c2ccccc2n1` is 229 to 231 °C. The figure for `CC(=O)c1ccc2cccc3c2c1CC3` is 104 to 106 °C; for `Cn1cc(C(=O)O)c(-c2ccc(N)cc2)n1` it is 226 to 228 °C. The figure for `COC(=O)CNc1cccc(F)c1` is 65 to 67 °C; for `Cc1ccc(S(=O)(=O)N2CCCC(C(=O)O)C2)cc1` (stereo unspecified) it is 149 to 151 °C; for `O=C(O)C=Cc1cc(Br)c2c(c1)OCCO2` it is 267 to 269 °C.

Regarding `CC(C)(C)c1ccc(OCC(=O)O)c(C(C)(C)C)c1`, the melting point is < 17 °C.

On to `CN(c1ccccc1)S(=O)(=O)c1ccccc1C(=O)O`, for which the melting point lay within 136 to 138 °C. Then `Cc1ccoc1-c1nnc(CCl)o1`, with 49 to 51 °C; and `O=C(O)C1CSC(c2cccs2)N1` (stereo unspecified), with 148 to 150 °C.

In the case of `Cc1cccc(OCC(O)CN)c1` (stereo unspecified), the melting point was in the range of 75 to 77 °C. The figure for `O=C1NC(=O)C(F)(F)c2ccccc21` is 109 to 111 °C; for `Cc1nc(Cl)c(C)c(-n2cccn2)n1` it is 61 to 63 °C. The compound `CC1(C)OCC(C)(C(=O)O)CO1` had a melting point of 117 to 119 °C. Then `CCOc1cc(C(=O)N2CCCC(C(=O)O)C2)cc(OCC)c1OCC` (stereo unspecified), with 183 to 185 °C; and `CC1CN(Cc2csc(N)n2)CC(C)O1` (stereo unspecified), with 132 to 134 °C.

Compound `NNC(=S)NC1CCCC1` gave a melting point of 76 to 78 °C. Then `Cc1nc(Cl)cc(Cl)n1`, with 44 to 46 °C; and `Oc1ccc(CNCc2ccco2)cc1`, with 107 to 109 °C. Then `Nc1cc(-c2ccsc2)no1`, with 89 to 91 °C; and `O=C(O)c1cc(O)cc(OCC(F)(F)F)c1`, with 165 to 167 °C. As for `O=C(O)Cc1ccc2c(c1)OCCO2`, the melting point is 54 to 56 °C. With `NCc1ccc(NC(=O)CCCOc2ccccc2)cc1`, the melting point fell in the range of 96 to 98 °C. Then `O=C(O)c1ccncc1N1CCCC1`, with 259 to 261 °C. Regarding `COc1cc(N)ccc1S(=O)(=O)Nc1ccc(F)c(Cl)c1`, the melting point is 165 to 167 °C. The figure for `O=c1ccn2ncc(Br)c2[nH]1` is 349 to 351 °C.

As a reminder, the melting point is the temperature, or range, at which the solid turns liquid.

Source of the values: a melting point compilation (Tetko et al.).
